Assay results as given in PMC10424441, “Macrophage targeted polymeric curcumin nanoparticles limit intracellular survival of Mycobacterium tuberculosis through induction of autophagy and augment anti-TB activity of isoniazid in RAW 264.7 macrophages” (Frontiers in Immunology, 2023).
Where two headings read alike, the source gives them in different places.

Columns and labels:
[1] = system: Caspase-3, cleaved caspase-3, cleaved PARP, Bax and Bcl-2 in RAW cells with or without MTB infection; test: Western blot of pro and anti-apoptotic proteins; type: cell-based, Murine; conditions: 10μM and 20μM
Experimental: (§1) Cells were harvested, washed thrice with 1X cold PBS and lysed in RIPA lysis buffer containing 1% protease inhibitor cocktail (Sigma) and 3% phosphatase inhibitor cocktail (Sigma). Total protein concentration in the cell lysate was estimated by Bradford reagent (Sigma). Samples containing equal amounts of protein (80μg/well) were run on 10% SDS PAGE followed by electro transfer on nitrocellulose membrane. Membranes were blocked with blocking buffer (5% w/v skimmed milk in 1X TBST) for 30 minutes followed by incubation with respective antibodies for 4 h at room temperature. Further, membranes were washed thrice with 1xTBST for 15 minutes and incubated appropriate secondary antibody HRP conjugate for 2 h and blots were developed with Enhanced Chemiluminescence kit (Roche) according to manufacturer’s protocol. Densitometric analysis was performed using ImageJ software.

[2] = system: GFP-MTB H37Rv infected RAW 264.7 cells; test: Confocal microscopy of phagosome lysosome fusion; type: cell-based, Murine; conditions: 10μM and 20μM, 48h, MOI 5
Experimental: RAW 264.7 cells (5 x 10^5 cells/ml) were seeded on sterile coverslips in 6-well plates and incubated at 37°C for overnight in CO2 incubator. Next day cells were infected with GFP-MTB H37Rv at MOI 5 and treated with CMN for 48h. Lysotracker Red (Thermo) was added to each well at concentration of 70nM for 3h prior to the end of incubation. Coverslips were washed twice with sterile 1XPBS and fixed with 4% para formaldehyde. Cover slips were mounted on glass slides using Prolong® Gold Antifade (Thermo) mounting reagent containing DAPI and images were acquired on Zeiss LSM 510 Meta confocal microscope (Carl Zeiss) equipped with 63X oil immersion lens. Optical sections with Z-stack were taken to evaluate colocalization and images were deconvolved.

[3] = system: MDR clinical isolate of MTB, strain-2; type: cell-based, Mycobacterium tuberculosis; conditions: 10μM and 20μM, 48 and 72h
MTB H37Rv = test: Macrophage infection and CFU assay (intracellular survival in RAW 264.7); type: cell-based, Mycobacterium tuberculosis; conditions: for Percent survival of MTB (percentage of control): adjunctive action experiment, dose not given
[4] = Oral pharmacokinetics study; conditions: 50 mg/kg
[5] = system: LC3-I to LC3-II conversion and p62 degradation in MTB H37Rv infected RAW cells; test: Western blot of autophagy markers, MTB infected cells; type: cell-based, Murine; conditions: 10μM and 20μM, MTB H37Rv infected RAW macrophages
Experimental: as §1

[6] = system: MDR clinical isolate of MTB, strain-1; type: cell-based, Mycobacterium tuberculosis; conditions: 10μM and 20μM, 48 and 72h
[7] = system: LC3-I to LC3-II conversion and p62 degradation in RAW 264.7 cells; test: Western blot of autophagy markers, uninfected cells; type: cell-based, Murine; conditions: 10μM and 20μM, 24h
Experimental: as §1

COc1cc(C=CC(=O)CC(=O)C=Cc2ccc(O)c(OC)c2)ccc1O [CMN, 1,7-bis (4-hydroxy-3-methoxy-phenyl) hepta-1,6-diene-3,5-dione]
Expression of anti-apoptotic protein Bcl-2 ([1]; 24h, RAW cells with or without MTB infection): downregulation | Expression of pro apoptotic proteins cleaved caspase-3, cleaved PARP and Bax ([1]; 24h post treatment, compared to untreated cells): upregulated | Phagosome lysosome fusion (co localization of GFP and Lysotracker Red) [2]: formation of yellow compartment in both the CMN treatment groups after 48h | Percent survival [3]: inhibited the percent survival | Percent survival ([3]; treatment with 3-MA): increase in the percent survival that was comparable to untreated controls | Percent survival (percentage of control) (MTB H37Rv; 10μM, 48h, in presence of autophagy inhibitor 3-MA): 87.1 ± 6.6% | Percent survival (percentage of control) (MTB H37Rv; 10μM, 48h post infection, RAW 264.7, MOI 5): 57 ± 4.6% | Percent survival (percentage of control) (MTB H37Rv; 10μM, 72h, in presence of autophagy inhibitor 3-MA): 80.1 ± 6.8% | Percent survival (percentage of control) (MTB H37Rv; 10μM, 72h post infection, RAW 264.7, MOI 5): 49.1 ± 7.8% | Percent survival (percentage of control) (MTB H37Rv; 20μM, 48h, RAW 264.7, MOI 5): 47.7 ± 4.1% | Percent survival (percentage of control) (MTB H37Rv; 20μM, 48h, in presence of autophagy inhibitor 3-MA): 87.1 ± 4.6% | Percent survival (percentage of control) (MTB H37Rv; 20μM, 72h, RAW 264.7, MOI 5): 45.6 ± 6.1% | Percent survival (percentage of control) (MTB H37Rv; 20μM, 72h, in presence of autophagy inhibitor 3-MA): 85.7 ± 8.8% | Percent survival of MTB (percentage of control) (MTB H37Rv; 48h of treatment): 41.6 ± 3.5% | Percent survival of MTB (percentage of control) (MTB H37Rv; 72h of treatment): 34.8 ± 3.0% | AUC(0-inf) ([4]; BALB/c, mouse, in vivo, po): 170 ng·h/mL | AUC(0-t) ([4]; BALB/c, mouse, in vivo, po): 119 ng·h/mL | Cmax ([4]; BALB/c, mouse, in vivo, po): 45.2 ng/mL | MRT inf ([4]; BALB/c, mouse, in vivo, po): 5.07 h | Tmax ([4]; BALB/c, mouse, in vivo, po): 0.25 h | half-life ([4]; BALB/c, mouse, in vivo, po): 3.66 h | k el ([4]; BALB/c, mouse, in vivo, po): 5.28e-05 s⁻¹ | Time up to which CMN was detected in plasma after administration ([4]; oral, BALB/c mice): up to 8 h | Autophagy induction (LC3-I to LC3-II conversion and p62 degradation) [5]: autophagy induction in MTB infected cells after CMN treatment | Percent survival [6]: inhibited the percent survival | Percent survival ([6]; treatment with 3-MA): increase in the percent survival that was comparable to untreated controls | Conversion of LC3-I to LC3-II (immunoblotting) [7]: conversion of LC3-I to II at 10μM and 20μM dose | Degradation of p62 (immunoblotting) [7]: p62 degradation at 10μM and 20μM dose

NNC(=O)c1ccncc1 [INH, isoniazid]
Percent survival of MTB (percentage of control) (MTB H37Rv; 48h of treatment): 35.1 ± 2.8% | Percent survival of MTB (percentage of control) (MTB H37Rv; 72h of treatment): 22.9 ± 4.5%
